Measurements published in patent US10723716B2, “Alpha-helix mimetics as modulators of Abeta self-assembly” (New York University, priority 2016, dated 2020).
“Also recorded” adds a separate entry of the source.

Assays:
Aβ40 = molecular target: T1, Aβ40 (Homo sapiens, UniProt P05067); assay: ThT-based kinetic assay of Aβ40 aggregation; assay type: biochemical; settings: equimolar ratio
T1 construct: Cleavage of APP results in several Aβ isoforms; The predominant species are Aβ42 and Aβ40; purchased Anaspec (Fremont, Calif., USA)
T1 sequence (P05067 672-711 limits assumed): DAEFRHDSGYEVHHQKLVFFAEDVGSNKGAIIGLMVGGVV
Procedure: Kinetic assays were conducted on a FlexStation 3 Multi-Mode Microplate reader from Molecular Devices (Sunnyvale, Calif., USA). Experiments were conducted in triplicate in a 96-well plate with a final volume of 200 μL per well. Every measurement was an average of 50 readings. The aggregation of an amyloidogenic peptide (Aβ40, Aβ42, or IAPP) was initiated by the addition of the peptide from a stock solution (in DMSO, 0.5-1 mM) to phosphate buffer. The final concentration of each peptide was different based on their aggregation. The stoichiometry of ThT dye for each peptide was 0.5:1 (ThT:peptide). Peptide aggregation was monitored by ThT fluorescence (λex=445 nm and λem=485 nm). The blank sample contained all the components of the peptide samples except the peptide. The sample data were processed by subtracting the fluorescence of the blank sample. The fluorescence intensity data was then normalized by setting the maximum value to 1.
Kinetic assays in the presence of the compounds of the invention were conducted under the same conditions. The small molecules were added from a stock solution (1 mM or 10 mM in DMSO) to keep the final concentration of DMSO less than 1.0% (v/v). […]
Kinetic profiles were processed using Origin (version 9.1). […] Each run was fit independently to extract the t50 (time required to reach 50% of the maximum fluorescence intensity). […]

Aβ42 = molecular target: T2, Aβ42 (Homo sapiens, UniProt P05067); assay: Circular dichroism (CD) spectroscopy of Aβ42; assay type: biochemical; settings: 15 μM Aβ42, equimolar ratio, after 24 h
T2 construct: Cleavage of APP results in several Aβ isoforms; The predominant species are Aβ42 and Aβ40; purchased Anaspec (Fremont, Calif., USA)
T2 sequence (P05067 672-713 limits assumed): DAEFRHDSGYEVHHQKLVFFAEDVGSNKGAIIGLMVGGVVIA
Procedure: A freshly prepared stock solution of Aβ42 (500 μM) was diluted to 15 μM in phosphate buffer for CD measurements. The spectra of Aβ42 in the absence and presence of the compounds of the invention were recorded at 0.5 nm intervals from 190 to 260 nm with an averaging time of 10 sec. and an average of three repeats on a Aviv Stopped Flow CD Spectropolarimeter (Model 202SF).

β-sheet formation of Aβ42 (far UV-CD) (Aβ42): No formation of β-sheet structure
Structure (SMILES): COC(=O)c1ccc(NC(=O)c2ccc(NC(=O)c3ccc([N+](=O)[O-])c(OCc4ccccc4)n3)c(OCCCN)n2)c(OCCCN)n1 [ADH-41]
effect on Aβ40 aggregation (ThT) (Aβ40): decreased significantly; also recorded: completely arrested
